According to patent publication US20230285570A1, “THERAPEUTICALLY USEFUL CURE-PRO MOLECULES FOR E3 LIGASE MEDIATED DEGRADATION OF PROTEINS, AND METHODS OF MAKING AND USING THEM” (CORNELL UNIVERSITY, priority 2020, published 2023):
“Also recorded” adds a separate entry of the source.

What was measured:
Assay type in all cases: cell-based
[1] = molecular target: T1, BRD4 (Homo sapiens, UniProt O60885); experiment: CURE-PRO-mediated BRD4 degradation in HeLa cells, Western blot; parameters: endogenous in cells; host or cells: HeLa; settings: 24 h
Protocol: All cell lines were purchased from ATCC or DSMZ and grown at 37° C. with 5% CO2. Human HeLa cells were cultured in complete growth medium (Dulbecco's modified Eagle's medium (DMEM) supplemented with 10% FBS); MCF7 cells were cultured in complete growth medium (Dulbecco's modified Eagle's medium (DMEM) supplemented with 10% FBS and 0.01 mg/ml human recombinant insulin (Sigma Aldrich); Namalwa and Ramos cells were cultured in complete growth medium (RPMI 1640 medium supplemented with 10% FBS); HCT116 and HT29 cells were cultured in complete growth medium (McCoy's 5a Medium supplemented with 10% FBS). For cellular degradation of BRD4 studies cells were seeded in a 12-well plate at 70-80% confluency, allowed to attach overnight, and incubated with the indicated compounds for the indicated time. When indicated, a 15-minute pretreatment with 10 μM pomalidomide, 10 μM VHL298, 10 μM Nutlin3a, 1 μM MG-132 or 1 μM Carfilzomib was performed before the addition of CURE-PROs. For washout studies, after CURE-PRO treatment, media was aspirated and incubated with complete medium for the indicated time before lysis.
(§1) Namalwa, Ramosm HeLa, MCF7, or HT29 HCT116 cells (2.5-3×10^6) were treated for 24 hours with the indicated compounds solubilized in DMSO. The cells were washed in ice-cold PBS and were then lysed in RIPA lysis buffer (150 mM NaCl, 5 mM EDTA, 1% NP-40, 0.5% sodium deoxycholate, 0.1% SDS, 50 mM Tris, pH 8.0.) with Roche protease inhibitor complete cocktail and phosphatase inhibitors (10 mM sodium fluoride, 10 mM sodium pyrophosphate, 1 mM sodium orthovanadate and 20 mM β-glycerophosphate). The total protein concentrations were determined by Bradford Protein Assay (Pierce) and 10-20 μg of protein was loaded onto 4-15% Tris-Glycine gradient gels (Biorad). After standard gel electrophoresis, the separated proteins were transferred to PVDF membrane by wet transfer. The immunoblots were then blocked for 1 hour in 5% skim milk in TBST or 5% BSA in TBST, according to manufacturer's instructions, before an overnight incubation at 4° C. with indicated antibodies and membranes. Membranes were then incubated with the appropriate horseradish peroxidase-conjugated secondary antibodies (1:5,000 dilution) for 1 h at room temperature and the bands were visualized using the Clarity Max Western ECL Substrate (Biorad) and the ChemiDoc Imaging System (Biorad). Signal was detected with ECL Western Blotting Substrate (Pierce) and X-ray film processed with a Konica SRX-101 X-ray film processor or captured by Bio-Rad's Chemidoc Imaging system.
HeLa cells (2.5×10^6) were treated for 24 hours with the sample compounds solubilized in DMSO. Compounds were added at 1-10 μM each. Standardized protein samples were electrophoresed and imaged as described in the immunoblotting description above. FIGS. 6-18 depicts the CURE-PRO-mediated BRD4 degradation for BRD monomers (JQ1 derivatives comprising of catechol linkers), and CRBN ligands, 8048 and 8049 (pomalidomide derivatives comprising boronic acid linkers) combined in a 1:1 ratio.
HeLa cells (2.5×10^6) were treated for 24 hours with the compounds solubilized in DMSO. The compounds were added at 10 μM each. Standardized protein samples were electrophoresed and imaged as described in the immunoblotting section above. FIGS. 23-27 depicts the CURE-PRO-mediated BRD4 degradation for BRD monomers (JQ1 derivatives comprising of boronic acid linkers), and CRBN ligands, 8046, 8047 and 8066 (pomalidomide derivatives comprising diol linkers) combined in a 1:1 ratio.
HeLa cells (2.5×10^6) were treated for 24 hours with the compounds solubilized in DMSO. Compounds were added at 10 μM and 100 μM each. Standardized protein samples were electrophoresed and imaged as described in the immunoblotting section above.
HeLa cells (2.5×10^6) were treated for 24 hours with the compounds solubilized in DMSO. Compounds were added at 1 nM-1 μM each. […]

[2] = molecular target: T1, BRD4; experiment: Summary of BRD4 degradation by CURE-PRO pairs, estimated from Western Blot or WES; parameters: endogenous in cells; settings: for Degradation of BRD4, combination with CRBN ligand 8048: Table 4, aromatic 1,2-diol BRD4 ligand + 8048
Protocol: as §1
(§2) WES Simple analysis was performed on WES system (ProteinSimple-Biotechne) according to the manufacturer's instructions. Total protein concentrations of cell lysates were determined by the Pierce BCA kit (Thermo Fisher). 3 μL of 0.3 μg/μL of the protein lysate was loaded onto a 12- to 230-kDa WES assay plate (ProteinSimple) where 300 nL sample was withdrawn through a capillary, subjected to electrophoretic separation of proteins by size, and followed by the simultaneous, HRP-based detection of proteins using the Anti-Rabbit Detection Module (Proteinsimple: #DM-001). The electropherograms were checked then the automatic peak detection was manually corrected if it was required.
(§3) A black check mark indicates efficacy of 30% to 70% or higher protein degradation.

[3] = molecular target: c-MYC (Homo sapiens, UniProt P01106); experiment: Summary of C-MYC degradation by CURE-PRO pairs, estimated from Western Blot or WES; parameters: endogenous in cells; host or cells: HT29; settings: for Degradation of C-MYC, combination with CRBN ligand 8066: Table 7, aryl-boronic acid MYC ligand + 8066
Chain of c-MYC (P01106 whole entry): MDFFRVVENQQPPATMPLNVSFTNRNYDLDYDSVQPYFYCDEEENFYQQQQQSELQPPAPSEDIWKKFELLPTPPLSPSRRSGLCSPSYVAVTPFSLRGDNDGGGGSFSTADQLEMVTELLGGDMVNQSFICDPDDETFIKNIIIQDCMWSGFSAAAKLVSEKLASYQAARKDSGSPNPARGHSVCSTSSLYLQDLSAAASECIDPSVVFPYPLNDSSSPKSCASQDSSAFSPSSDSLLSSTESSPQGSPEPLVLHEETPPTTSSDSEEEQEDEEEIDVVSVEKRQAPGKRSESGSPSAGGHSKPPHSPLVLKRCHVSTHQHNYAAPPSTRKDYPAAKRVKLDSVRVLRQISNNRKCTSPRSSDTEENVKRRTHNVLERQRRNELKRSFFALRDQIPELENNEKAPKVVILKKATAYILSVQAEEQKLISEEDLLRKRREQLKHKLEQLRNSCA
Protocol: as §1, §2, §3

[4] = BRD4 monomer alone, HeLa, 1-10 μM
[5] = co-treated 1:1 with CRBN ligand 8048, HeLa, 1-10 μM each
[6] = co-treated 1:1 with CRBN ligand 8049, HeLa, 1-10 μM each

Structure (SMILES)	BRD4 degradation [1, 4]	BRD4 degradation [1, 5]	Degradation of BRD4, combination with CRBN ligand 8048 [2]	BRD4 degradation [1, 6]	Degradation of BRD4, combination with CRBN ligand 8049 ([2]; Table 4, aromatic 1,2-diol BRD4 ligand + 8049)	Degradation of BRD4, combination with MDM2 ligand 8312 ([2]; Table 5, aromatic 1,2-diol BRD4 ligand + 8312)	Degradation of C-MYC, combination with CRBN ligand 8046 ([3]; Table 7, aryl-boronic acid MYC ligand + 8046)	Degradation of C-MYC, combination with CRBN ligand 8066 [3]
COc1ccc2c(c1)C(c1ccc(Cl)cc1)=N[C@@H](CC(=O)NCCNC(=O)c1ccc(O)c(O)c1)c1nnc(C)n1-2 [BRD-N1]	there is no degradation of BRD4	causes degradation of BRD4; also recorded: Degradation is noted	√ (A black check mark indicates efficacy of 30% to 70% or higher protein degradation)	–	–	–	–	–
COc1ccc2c(c1)C(c1ccc(Cl)cc1)=N[C@@H](CC(=O)NCCCCNC(=O)c1ccc(O)c(O)c1)c1nnc(C)n1-2 [BRD-N5]	there is no degradation of BRD4	causes degradation of BRD4; also recorded: Degradation is noted	√ (A black check mark indicates efficacy of 30% to 70% or higher protein degradation)	no evidence of BRD4 degradation	–	–	–	–
COc1ccc2c(c1)C(c1ccc(Cl)cc1)=N[C@@H](CC(=O)NCCCCNC(=O)c1cccc(O)c1O)c1nnc(C)n1-2 [BRD-N6]	there is no degradation of BRD4	causes degradation of BRD4; also recorded: Degradation is noted	√ (A black check mark indicates efficacy of 30% to 70% or higher protein degradation)	no evidence of BRD4 degradation	–	–	–	–
CCNC(=O)C[C@@H]1N=C(c2ccc(Cl)cc2)c2cc(OCCCCC(=O)Nc3ccc(O)c(O)c3)ccc2-n2c(C)nnc21 [BRD-N22, 5-(((4S)-6-(4-chlorophenyl)-4-(2-(ethylamino)-2-oxoethyl)-1-methyl-4H-benzo[f][1,2,4]triazolo[4,3-a][1,4]diazepin-8-yl)oxy)-N-(3,4-dihydroxyphenyl)pentanamide]	there is no degradation of BRD4	causes degradation of BRD4; also recorded: Degradation is noted	√ (A black check mark indicates efficacy of 30% to 70% or higher protein degradation)	no evidence of BRD4 degradation	–	–	–	–
COc1ccc2c(c1)C(c1ccc(Cl)cc1)=N[C@@H](CC(=O)NCCNC(=O)Cc1ccc(O)c(O)c1)c1nnc(C)n1-2 [BRD-N30]	there is no degradation of BRD4	causes degradation of BRD4	√ (A black check mark indicates efficacy of 30% to 70% or higher protein degradation)	–	–	–	–	–
CCNC(=O)C[C@@H]1N=C(c2ccc(Cl)cc2)c2cc(OCCOCCNC(=O)c3ccc(O)c(O)c3)ccc2-n2c(C)nnc21 [BRD-N38, N-(2-(2-(((4S)-6-(4-chlorophenyl)-4-(2-(ethylamino)-2-oxoethyl)-1-methyl-4H-benzo[f][1,2,4]triazolo[4,3-a][1,4]diazepin-8-yl)oxy)ethoxy)ethyl)-3,4-dihydroxybenzamide]	there is no degradation of BRD4	causes degradation of BRD4	√ (A black check mark indicates efficacy of 30% to 70% or higher protein degradation)	–	–	–	–	–
COc1ccc2c(c1)C(c1ccc(Cl)cc1)=N[C@@H](CC(=O)NCCOCCOCCOCCNC(=O)c1ccc(O)c(O)c1)c1nnc(C)n1-2 [BRD-N44]	there is no degradation of BRD4	causes degradation of BRD4	√ (A black check mark indicates efficacy of 30% to 70% or higher protein degradation)	–	–	–	–	–
CCNC(=O)C[C@@H]1N=C(c2ccc(Cl)cc2)c2cc(-c3ccc4cc(O)c(O)cc4c3)ccc2-n2c(C)nnc21 [BRD-N67]	there is no degradation of BRD4	causes degradation of BRD4	√ (A black check mark indicates efficacy of 30% to 70% or higher protein degradation)	causes degradation of BRD4	√ (A black check mark indicates efficacy of 30% to 70% or higher protein degradation)	–	–	–
COc1ccc2c(c1)C(c1ccc(Cl)cc1)=N[C@@H](CC(=O)NCCOCCOCCOCCOCCNC(=O)c1ccc(O)c(O)c1)c1nnc(C)n1-2 [BRD-N69]	there is no degradation of BRD4	causes degradation of BRD4; also recorded: Degradation is noted	√ (A black check mark indicates efficacy of 30% to 70% or higher protein degradation)	no evidence of BRD4 degradation	–	–	–	–
CCNC(=O)C[C@@H]1N=C(c2ccc(Cl)cc2)c2cc(OCCOCCOCCOCCOCCOCCNC(=O)c3ccc(O)c(O)c3)ccc2-n2c(C)nnc21 [BRD-N70, N-(17-(((4S)-6-(4-chlorophenyl)-4-(2-(ethylamino)-2-oxoethyl)-1-methyl-4H-benzo[f][1,2,4]triazolo[4,3-a][1,4]diazepin-8-yl)oxy)-3,6,9,12,15-pentaoxaheptadecyl)-3,4-dihydroxybenzamide]	–	causes degradation of BRD4; also recorded: Degradation is noted	√ (A black check mark indicates efficacy of 30% to 70% or higher protein degradation)	no evidence of BRD4 degradation	–	–	–	–
CCNC(=O)C[C@@H]1N=C(c2ccc(Cl)cc2)c2cc(OCCOCCOCCOCCOCCOCCNC(=O)c3cccc(O)c3O)ccc2-n2c(C)nnc21 [BRD-N71, N-(17-(((4S)-6-(4-chlorophenyl)-4-(2-(ethylamino)-2-oxoethyl)-1-methyl-4H-benzo[f][1,2,4]triazolo[4,3-a][1,4]diazepin-8-yl)oxy)-3,6,9,12,15-pentaoxaheptadecyl)-2,3-dihydroxybenzamide]	there is no degradation of BRD4	causes degradation of BRD4; also recorded: Some selectivity for BRD-N71 and 8048 is noted	√ (A black check mark indicates efficacy of 30% to 70% or higher protein degradation)	no evidence of BRD4 degradation	–	√ (A black check mark indicates efficacy of 30% to 70% or higher protein degradation)	–	–
CCc1ccc(/C=C2\SC(=O)N(CCCc3cccc(B(O)O)c3)C2=O)cc1 [MYC- E02]	–	–	–	–	–	–	√ (A black check mark indicates efficacy of 30% to 70% or higher protein degradation)	√ (A black check mark indicates efficacy of 30% to 70% or higher protein degradation)
O=C(NCc1ccc(B(O)O)cc1)c1cccc(Nc2ccc([N+](=O)[O-])c3nonc23)c1 [MYC- E09]	–	–	–	–	–	–	–	√ (A black check mark indicates efficacy of 30% to 70% or higher protein degradation)
